Laboratory results published in patent US10653699B2, “Controlled-release tozadenant formulations” (BIOTIE THERAPIES, INC., priority 2015, dated 2020).

Columns and labels:
[1] = Physical characterization of tozadenant API; assay type: physicochemical
Source text: The active pharmaceutical ingredient (API) was very fine, with ˜60% fines. […] The observed loss upon drying indicated a low amount of water and volatile matter in API.

[2] = Treatment-emergent adverse events and tozadenant plasma Cmax by dose in patients (Table 19); assay type: in vivo, human; details: for Cmax at 6 week / Cmax: human, oral; for Cmax at 6 week: maximum plasma concentration in group of 63-75 patients, time since last dose unknown; for Cmax: plasma, read-out: Cmax (ng/mL) at ~5 hr postdose at Day 1
Source text: Table 19 summarizes the dose response of AEs observed in patients taking tozadenant alongside the plasma Cmax. A clear trend of increasing AEs and discontinuation of therapy is seen with doses that result in higher tozadenant Cmax. A controlled-release formulation can be used to achieve the drug levels (Css) that are therapeutically effective while avoiding the high plasma Cmax and AEs associated with high doses of an IR formulation.

[3] = Clinical study of immediate-release tozadenant: treatment-emergent adverse events, Cmax and Css (Table 18); assay type: in vivo, human; details: for Total AEs/subject / concentration at 14 day / Cmax: immediate-release formulation; for Total Number of AEs: immediate-release formulation (N = 6); for concentration at 14 day / Cmax: human, plasma; for Cmax: read-out: Cmax (ng/mL) at Day 14
Method: Advantages of controlled-release formulations compared to immediate-release formulations include: lower incidence of adverse events; improved tolerability; reduced frequency of dosing; and improved compliance due to reduced frequency of dosing.
An example of an efficacious dose of tozadenant is 120 mg of an immediate-release formulation administered twice a day (BID). […] Thus, a CR formulation could be designed to achieve an efficacious Css lower than the plasma levels (Cmax) that result in AEs. An efficacious CR formulation would preferably result in a Css in the range of 0.5-3.0 μg/mL.

Bulk density [1]: 0.1948 g/mL | Compressibility index [1]: 35.065 | Fines Portion (# 60 pass portion) [1]: 60.00% | Granular Portion (# 60 Retain portion) [1]: 40.00% | Hausner ratio [1]: 1.5406 | Tapped density [1]: 0.3000 g/mL | Particle size distribution (% Retention) ([1]; ASTM # 20 mesh (841μ)): 0.00% | Particle size distribution (% Retention) ([1]; ASTM # 40 mesh (420μ)): 7.00% | Particle size distribution (% Retention) ([1]; ASTM # 60 mesh (250μ)): 33.00% | Particle size distribution (% Retention) ([1]; ASTM # 80 mesh (177μ)): 18.00% | Particle size distribution (% Retention) ([1]; ASTM # 100 mesh (149μ)): 16.00% | Particle size distribution (% Retention) ([1]; ASTM # 200 mesh (75μ)): 21.00% | Particle size distribution (% Retention) ([1]; Pan): 5.00% | Loss on drying ([1]; at 105° C. for 5 minutes): 0.400 % w/w
Structure (SMILES): COc1ccc(N2CCOCC2)c2sc(NC(=O)N3CCC(C)(O)CC3)nc12 [tozadenant, 4-hydroxy-4-methyl-piperidine-1-carboxylic acid (4-methoxy-7-morpholin-4-yl-benzothiazol-2-yl)-amide]
Patients discontinuing due to AEs, % ([2]; 60 mg BID): 8% | Patients with no AE, % ([2]; 60 mg BID): 28% | Patients with ≥ 1 AE related to study drug, % ([2]; 60 mg BID (N = 85)): 44% | Patients discontinuing due to AEs, % ([2]; 120 mg BID): 12% | Patients with no AE, % ([2]; 120 mg BID): 26% | Patients with ≥ 1 AE related to study drug, % ([2]; 120 mg BID (N = 82)): 55% | Patients discontinuing due to AEs, % ([2]; 180 mg BID): 12% | Patients with no AE, % ([2]; 180 mg BID): 21% | Patients with ≥ 1 AE related to study drug, % ([2]; 180 mg BID (N = 85)): 55% | Patients discontinuing due to AEs, % ([2]; 240 mg BID): 20% | Patients with no AE, % ([2]; 240 mg BID): 18% | Patients with ≥ 1 AE related to study drug, % ([2]; 240 mg BID (N = 84)): 63% | Cmax at 6 week ([2]; 60 mg BID): 2570 ng/mL | Cmax ([2]; 60 mg BID): 424 ng/mL | Cmax at 6 week ([2]; 120 mg BID): 3910 ng/mL | Cmax ([2]; 120 mg BID): 680 ng/mL | Cmax at 6 week ([2]; 180 mg BID): 5460 ng/mL | Cmax ([2]; 180 mg BID): 999 ng/mL | Cmax at 6 week ([2]; 240 mg BID): 6630 ng/mL | Cmax ([2]; 240 mg BID): 1150 ng/mL | Css ([3]; 120 mg of an immediate-release formulation administered twice a day (BID)): about 2.4 μg/mL | Total AEs/subject ([3]; 120 BID): 0.7 | Total Number of AEs ([3]; 120 BID): 4 | Total AEs/subject ([3]; 240 BID): 4.0 | Total Number of AEs ([3]; 240 BID): 24 | Total AEs/subject ([3]; 240 QD): 2.7 | Total Number of AEs ([3]; 240 QD): 16 | Total AEs/subject ([3]; 480 QD): 5.0 | Total Number of AEs ([3]; 480 QD): 30 | concentration at 14 day ([3]; 120 mg, 120 BID): 2360 ng/mL | Cmax ([3]; 120 mg, 120 BID): 2970 ng/mL | concentration at 14 day ([3]; 240 mg, 240 BID): 4810 ng/mL | Cmax ([3]; 240 mg, 240 BID): 6160 ng/mL | concentration at 14 day ([3]; 240 mg, 240 QD): 2080 ng/mL | Cmax ([3]; 240 mg, 240 QD): 3440 ng/mL | concentration at 14 day ([3]; 480 mg, 480 QD): 3500 ng/mL | Cmax ([3]; 480 mg, 480 QD): 5120 ng/mL
